# Data taken from patent US5843988A, “Cyclopropachromencarboxylic acid derivatives” (Suntory Limited, priority 1995, dated 1998).
# Read-outs that look alike come from different tables or passages of the source.
# Target: T1, rat mGluR1 (metabotropic glutamate receptor 1) (Rattus norvegicus, UniProt P23385)
# T1 construct: expressed in transfected cells; host or cells: CHO (Chinese hamster ovary) cells
# Experiment: mGluR1 antagonistic effect as assessed with reference to intracellular Ca2+ response in mGluR1 expressing CHO cells (Fura-2 fluorometry)
# Format: cell-based
# Settings: Intracellular Ca2+ release induced by 10 μM glutamic acid
# Description: Evaluation Example 1. mGluR1 antagonistic effect as assessed with reference to intracellular Ca^2+ response in mGluR1 expressing CHO cells
# Since mGluR1 (metabotropic glutamate receptor 1) induces release of Ca^2+ from intracellular Ca^2+ storage sites via the formation of inositol-1,4,5-triphosphate in the pathway of the intracellular signaling system, it is possible to evaluate the antagonistic activity of the compounds of the invention against mGluR1 with reference to intracellular Ca^2+ response in CHO cells in which recombinant rat mGluR1 gene is transfected.
# The present inventors applied this evaluation system to assess the mGluR1 antagonistic activity of the compounds provided by this invention using CHO cells in which rat mGluR1 gene is expressed [S. Nakanishi et al.: Neuron, 8, 757 (1992)]. Intracellular Ca^2+ release induced by 10 μM glutamic acid in the presence of various concentrations of the compounds of the present invention added to culture medium was measured by fluorometry with Fura -2 [H. Sugino et al.: Brain Res., 322,127 (1984)]. The antagonistic effect against the induced intracellular Ca^2+ elevation was thus assessed by comparison with the control response in the absence of the test compounds.
# [1] = read-out: 50% inhibitory concentrations (IC50), bound stated
# T1 sequence (P23385 19-1199): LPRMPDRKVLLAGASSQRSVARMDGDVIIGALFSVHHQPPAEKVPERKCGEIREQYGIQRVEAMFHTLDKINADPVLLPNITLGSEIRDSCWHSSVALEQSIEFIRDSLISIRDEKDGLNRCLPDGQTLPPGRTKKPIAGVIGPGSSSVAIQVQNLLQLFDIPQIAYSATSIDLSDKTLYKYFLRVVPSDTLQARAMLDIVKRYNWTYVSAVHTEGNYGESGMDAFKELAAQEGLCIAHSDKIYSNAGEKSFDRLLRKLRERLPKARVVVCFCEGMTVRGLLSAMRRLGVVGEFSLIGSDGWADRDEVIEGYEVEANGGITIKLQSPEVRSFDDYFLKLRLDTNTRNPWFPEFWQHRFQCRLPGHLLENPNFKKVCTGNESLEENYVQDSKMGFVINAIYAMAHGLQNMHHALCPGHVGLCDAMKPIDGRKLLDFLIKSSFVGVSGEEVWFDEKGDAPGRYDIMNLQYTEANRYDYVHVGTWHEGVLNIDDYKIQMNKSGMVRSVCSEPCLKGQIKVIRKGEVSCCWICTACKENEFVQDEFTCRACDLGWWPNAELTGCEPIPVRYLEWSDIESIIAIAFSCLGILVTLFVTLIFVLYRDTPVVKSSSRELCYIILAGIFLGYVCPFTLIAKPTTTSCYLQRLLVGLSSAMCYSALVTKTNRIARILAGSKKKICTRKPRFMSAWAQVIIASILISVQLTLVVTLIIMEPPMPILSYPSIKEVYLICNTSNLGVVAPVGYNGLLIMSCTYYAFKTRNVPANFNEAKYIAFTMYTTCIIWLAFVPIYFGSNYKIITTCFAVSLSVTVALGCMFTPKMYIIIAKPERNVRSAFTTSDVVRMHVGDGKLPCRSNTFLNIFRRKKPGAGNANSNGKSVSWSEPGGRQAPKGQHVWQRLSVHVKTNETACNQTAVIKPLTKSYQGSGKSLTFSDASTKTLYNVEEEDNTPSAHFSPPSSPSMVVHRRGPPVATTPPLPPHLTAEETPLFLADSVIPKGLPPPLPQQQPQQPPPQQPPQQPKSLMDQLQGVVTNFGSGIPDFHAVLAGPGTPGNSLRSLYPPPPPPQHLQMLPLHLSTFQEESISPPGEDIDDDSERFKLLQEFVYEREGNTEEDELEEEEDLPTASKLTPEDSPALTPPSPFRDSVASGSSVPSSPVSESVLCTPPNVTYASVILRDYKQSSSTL
Structure (SMILES),"IC50 (Table 3, read-out: IC50)",IC50 [1]
"COc1ccc(N(C)C(=O)C23CC2C(=NO)c2ccccc2O3)cc1 (stereo not drawn) [Example 41, 1a-(N-4-methoxyphenyl-N-methyl)carbamoyl-1a, 7a-dihydro-7(1H)-hydroxyimino-cyclopropa[b]chromen]",100 µM,≤ 100 µM
"O=C(Nc1ccccc1)C12CC1C(=NO)c1ccccc1O2 (stereo not drawn) [Example 35, 1a-(N-phenyl)carbamoyl-1a, 7a-dihydro-7(1H)-hydroxyiminocyclopropa[b]chromen]",3 µM,≤ 100 µM
"CN(C(=O)C12CC1C(=NO)c1ccccc1O2)c1ccccc1 (stereo not drawn) [Example 36, 1a-(N-methyl-N-phenyl)carbamoyl-1a, 7a-dihydro-7(1H)-hydroxyiminocyclopropa[b]chromen]",10 µM,≤ 100 µM
"CCOC(=O)C12CC1C(=NO)c1ccccc1O2 (stereo not drawn) [Example 32, 1a-ethoxycarbonyl-1a, 7a-dihydro-7(1H)-hydro-xyiminocyclopropa [b]chromen]",23 µM,≤ 100 µM
CC(C)COC(=O)C12CC1C(=NO)c1ccccc1O2 (stereo not drawn) [Example 34],20 µM,≤ 100 µM
"N[C@H](C(=O)O)c1ccc(C(=O)O)cc1 [(S)-4CPG, reference compound]",200 µM,

# The next lines start with the values.
"IC50 (Table 3, read-out: IC50)",IC50 [1],Structure (SMILES)
20 µM,≤ 100 µM,"CN(Cc1ccccc1)C(=O)C12CC1C(=NO)c1ccccc1O2 (stereo not drawn) [Example 43, 1a-(N-benzyl-N-methyl)carbamoyl-1a, 7a-dihydro-7(1H)-hydroxyiminocyclopropa[b]chromen]"
700 µM,,"CC(N)(C(=O)O)c1ccc(C(=O)O)cc1 (stereo not drawn) [MCPG, reference compound]"
100 µM,≤ 100 µM,"O=C(N1CCN(c2ccc(F)cc2)CC1)C12CC1C(=NO)c1ccccc1O2 (stereo not drawn) [Example 53, 1a-(1-(4-fluorophenyl)-piperazinyl)arbonyl-1a, 7a-dihydro-7(1H)-hydroxyiminocyclopropa[b]chromen]"
100 µM,≤ 100 µM,"CN(C(=O)C12CC1C(=NO)c1ccccc1O2)c1ccc(Cl)cc1 (stereo not drawn) [Example 42, 1a-(N-4-chlorophenyl-N-methyl)-carbamoyl-1a, 7a-dihydro-7(1H)-hydroxyiminocyclopropa-[b]chromen]"
